Laboratory results published in PubChem BioAssay (NCI).
Where “and” joins values, the source holds several entries; their conditions need not be identical. Identical values can stand only once.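 Dose response: 5 concentrations. Exposure: 48 h. Format: 96-well plates. Endpoint: linear interpolation; highest concentration if not reached. Here, GI50 denotes the concentration required for 50% inhibition of growth. Definition used: TGI = concentration required for complete inhibition of growth.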

What was measured:
Experiment in all cases: NCI tumour cell line growth inhibition, 48 h
HOP-62 NSCLC = tested on: HOP-62 NSCLC
SN12C renal = tested on: SN12C renal
OVCAR-5 ovarian = tested on: OVCAR-5 ovarian
HT29 colon = tested on: HT29 colon
SF-268 CNS = tested on: SF-268 CNS
XF 498 CNS = tested on: XF 498 CNS
HOP-92 NSCLC = tested on: HOP-92 NSCLC
HL-60(TB) leukemia = tested on: HL-60(TB) leukemia
DLD-1 colon = tested on: DLD-1 colon
NCI-H460 lung = tested on: NCI-H460 lung
DMS 273 small cell lung = tested on: DMS 273 small cell lung
UACC-257 melanoma = tested on: UACC-257 melanoma
OVCAR-3 ovarian = tested on: OVCAR-3 ovarian
CAKI-1 renal = tested on: CAKI-1 renal
M19-MEL melanoma = tested on: M19-MEL melanoma
DMS 114 small cell lung = tested on: DMS 114 small cell lung
PC-3 prostate = tested on: PC-3 prostate
RPMI-8226 leukemia = tested on: RPMI-8226 leukemia
SF-539 CNS = tested on: SF-539 CNS
NCI-H226 lung = tested on: NCI-H226 lung
HCT-116 colon = tested on: HCT-116 colon
786-0 renal = tested on: 786-0 renal
COLO 205 colon = tested on: COLO 205 colon
EKVX NSCLC = tested on: EKVX NSCLC
KM12 colon = tested on: KM12 colon
SR leukemia = tested on: SR leukemia
SK-MEL-2 melanoma = tested on: SK-MEL-2 melanoma
SF-295 CNS = tested on: SF-295 CNS
HS 578T breast = tested on: HS 578T breast
SNB-75 CNS = tested on: SNB-75 CNS
HOP-18 NSCLC = tested on: HOP-18 NSCLC
MDA-MB-435 = tested on: MDA-MB-435
OVCAR-8 ovarian = tested on: OVCAR-8 ovarian
MDA-N = tested on: MDA-N
NCI/ADR-RES ovarian = tested on: NCI/ADR-RES ovarian
HCC-2998 colon = tested on: HCC-2998 colon
A498 renal = tested on: A498 renal
U251 CNS = tested on: U251 CNS
SK-OV-3 ovarian = tested on: SK-OV-3 ovarian
NCI-H23 lung = tested on: NCI-H23 lung
HCT-15 colon = tested on: HCT-15 colon
BT-549 breast = tested on: BT-549 breast
IGROV1 ovarian = tested on: IGROV1 ovarian
MCF7 breast = tested on: MCF7 breast
A549 NSCLC = tested on: A549 NSCLC
RXF 393 renal = tested on: RXF 393 renal
UACC-62 melanoma = tested on: UACC-62 melanoma
MALME-3M melanoma = tested on: MALME-3M melanoma
SNB-78 CNS = tested on: SNB-78 CNS
M14 melanoma = tested on: M14 melanoma
K-562 leukemia = tested on: K-562 leukemia
LOX IMVI melanoma = tested on: LOX IMVI melanoma
CCRF-CEM leukemia = tested on: CCRF-CEM leukemia
LXFL 529 NSCLC = tested on: LXFL 529 NSCLC
RXF-631 renal = tested on: RXF-631 renal
OVCAR-4 ovarian = tested on: OVCAR-4 ovarian
T-47D breast = tested on: T-47D breast
MOLT-4 leukemia = tested on: MOLT-4 leukemia
SK-MEL-5 melanoma = tested on: SK-MEL-5 melanoma
NCI-H522 lung = tested on: NCI-H522 lung
ACHN renal = tested on: ACHN renal
SNB-19 CNS = tested on: SNB-19 CNS
TK-10 renal = tested on: TK-10 renal
UO-31 renal = tested on: UO-31 renal
MDA-MB-231 breast = tested on: MDA-MB-231 breast
SK-MEL-28 melanoma = tested on: SK-MEL-28 melanoma
SW-620 colon = tested on: SW-620 colon
DU-145 prostate = tested on: DU-145 prostate
KM20L2 colon = tested on: KM20L2 colon

## C/C(=N\NC(=S)N1CCN(c2ccccn2)CC1)c1nccs1
HOP-62 NSCLC
  TGI: 16.8 µM
SN12C renal
  TGI: 15.9 µM
OVCAR-5 ovarian
  GI50: 0.0544 µM
  TGI: 27.4 µM
HT29 colon
  TGI: 33.7 µM
SF-268 CNS
  TGI: > 54.2 µM
XF 498 CNS
  TGI: 32.1 µM
HOP-92 NSCLC
  GI50: 0.017 µM
HL-60(TB) leukemia
  GI50: 0.00712 µM
  TGI: 0.0419 µM and 0.0526 µM
DLD-1 colon
  TGI: 34.4 µM
NCI-H460 lung
  TGI: 2.3 µM
DMS 273 small cell lung
  TGI: 11.4 µM
UACC-257 melanoma
  TGI: 12.8 µM
OVCAR-3 ovarian
  GI50: 0.00821 µM and < 0.0205 µM
CAKI-1 renal
  TGI: 19.9 µM
M19-MEL melanoma
  TGI: 2.34 µM
DMS 114 small cell lung
  TGI: 0.649 µM
PC-3 prostate
  GI50: 0.525 µM
  TGI: 17.4 µM
RPMI-8226 leukemia
  GI50: 0.0145 µM
  TGI: 23.2 µM
SF-539 CNS
  TGI: 4.37 µM
NCI-H226 lung
  TGI: 6.66 µM
HCT-116 colon
  GI50: 0.0156 µM
  TGI: 20.2 µM
786-0 renal
  TGI: 13 µM
COLO 205 colon
  GI50: 0.0361 µM
  TGI: 15.3 µM
EKVX NSCLC
  GI50: 0.0334 µM
  TGI: 10.6 µM
KM12 colon
  TGI: 18.9 µM
SR leukemia
  GI50: 0.236 µM
  TGI: 4.63 µM
SK-MEL-2 melanoma
  TGI: 9.9 µM
SF-295 CNS
  TGI: 20.7 µM
HS 578T breast
  TGI: 38.3 µM
SNB-75 CNS
  TGI: 19.4 µM
HOP-18 NSCLC
  TGI: > 90.8 µM
MDA-MB-435
  TGI: 12.8 µM
OVCAR-8 ovarian
  TGI: 14.4 µM
MDA-N
  TGI: 16.6 µM
NCI/ADR-RES ovarian
  GI50: 0.279 µM
  TGI: 2.56 µM
HCC-2998 colon
  TGI: 14.9 µM
A498 renal
  TGI: 17.4 µM
U251 CNS
  TGI: 9.8 µM
SK-OV-3 ovarian
  TGI: 18.3 µM
NCI-H23 lung
  GI50: 0.0643 µM
  TGI: 13.8 µM
HCT-15 colon
  GI50: 0.0472 µM
  TGI: 21.3 µM
BT-549 breast
  TGI: 18 µM
IGROV1 ovarian
  GI50: 0.0817 µM
  TGI: 20.2 µM
MCF7 breast
  GI50: 0.377 µM
  TGI: 18.3 µM
A549 NSCLC
  TGI: 13.3 µM
RXF 393 renal
  TGI: 17.4 µM
UACC-62 melanoma
  TGI: 0.834 µM
MALME-3M melanoma
  TGI: 18.5 µM
SNB-78 CNS
  TGI: 71.4 µM
M14 melanoma
  TGI: 1.49 µM
K-562 leukemia
  GI50: 0.00649 µM
  TGI: 6.33 µM
LOX IMVI melanoma
  GI50: 0.0952 µM
  TGI: 2.42 µM
CCRF-CEM leukemia
  GI50: 0.00596 µM
  TGI: 0.256 µM
LXFL 529 NSCLC
  TGI: 22 µM
RXF-631 renal
  TGI: 24.2 µM
OVCAR-4 ovarian
  TGI: 22.5 µM
T-47D breast
  GI50: 0.855 µM
  TGI: 22.1 µM
MOLT-4 leukemia
  GI50: 0.00504 µM
  TGI: 22.3 µM
SK-MEL-5 melanoma
  TGI: 6.3 µM
NCI-H522 lung
  GI50: 0.0574 µM and 0.261 µM
  TGI: 16.3 µM
ACHN renal
  TGI: 9.96 µM
SNB-19 CNS
  TGI: 32.8 µM
TK-10 renal
  TGI: 20 µM
UO-31 renal
  TGI: 14 µM
MDA-MB-231 breast
  GI50: 0.796 µM
  TGI: 20 µM
SK-MEL-28 melanoma
  TGI: 19.9 µM
SW-620 colon
  TGI: 20.2 µM
DU-145 prostate
  TGI: 14.1 µM

## ClCc1ccc(C2OCCO2)cc1
HOP-62 NSCLC
  TGI: 41.2 µM
SN12C renal
  TGI: 35.3 µM
OVCAR-5 ovarian
  TGI: > 63.9 µM
HT29 colon
  TGI: 32.6 µM
SF-268 CNS
  TGI: > 100 µM
XF 498 CNS
  TGI: 33.3 µM
HOP-92 NSCLC
  TGI: 38.2 µM
HL-60(TB) leukemia
  TGI: 12.5 µM
DLD-1 colon
  TGI: 34.3 µM
NCI-H460 lung
  TGI: 39.4 µM
DMS 273 small cell lung
  TGI: 45.3 µM
UACC-257 melanoma
  TGI: 31.6 µM
OVCAR-3 ovarian
  TGI: 49.2 µM
M19-MEL melanoma
  TGI: 37.8 µM
DMS 114 small cell lung
  TGI: > 42.9 µM
RPMI-8226 leukemia
  TGI: 74.6 µM
SF-539 CNS
  TGI: > 56.7 µM
NCI-H226 lung
  TGI: 40.1 µM
HCT-116 colon
  TGI: > 52.1 µM
786-0 renal
  TGI: 54.4 µM
COLO 205 colon
  TGI: 37.8 µM
EKVX NSCLC
  TGI: > 63 µM
KM12 colon
  TGI: 18.4 µM
SR leukemia
  TGI: > 79.7 µM
SK-MEL-2 melanoma
  TGI: 42.2 µM
SF-295 CNS
  TGI: 35.5 µM
SNB-75 CNS
  TGI: 52.5 µM
HOP-18 NSCLC
  TGI: > 92.2 µM
OVCAR-8 ovarian
  TGI: 36.1 µM
KM20L2 colon
  TGI: > 69 µM
HCC-2998 colon
  TGI: 32 µM
A498 renal
  TGI: 45.3 µM
U251 CNS
  TGI: 17.2 µM
SK-OV-3 ovarian
  TGI: > 82 µM
NCI-H23 lung
  TGI: 17.2 µM
HCT-15 colon
  TGI: 34.7 µM
IGROV1 ovarian
  TGI: > 100 µM
A549 NSCLC
  TGI: > 80.7 µM
RXF 393 renal
  TGI: > 62 µM
UACC-62 melanoma
  TGI: > 52 µM
MALME-3M melanoma
  TGI: 49.9 µM
SNB-78 CNS
  TGI: > 31.6 µM
M14 melanoma
  TGI: 34.3 µM
K-562 leukemia
  TGI: > 31.6 µM
LOX IMVI melanoma
  TGI: 24.5 µM
CCRF-CEM leukemia
  TGI: > 69.7 µM
LXFL 529 NSCLC
  TGI: 37.2 µM
RXF-631 renal
  TGI: > 100 µM
MOLT-4 leukemia
  TGI: 45.6 µM
SK-MEL-5 melanoma
  TGI: > 55.5 µM
NCI-H522 lung
  TGI: 28.6 µM
ACHN renal
  TGI: > 62 µM
SNB-19 CNS
  TGI: > 59 µM
TK-10 renal
  TGI: > 75.3 µM
UO-31 renal
  TGI: > 56.2 µM
SK-MEL-28 melanoma
  TGI: > 58.6 µM
SW-620 colon
  TGI: 34.4 µM
